# Laboratory results taken from the NIST ThermoML archive (doi:10.1016/j.jct.2005.06.003).
# ± gives the expanded uncertainty stated by the source.
# Conditions: Liquid, Closed cell (Static) method
SMILES,vapor or sublimation pressure (283.15 K) [kPa],vapor or sublimation pressure (288.15 K) [kPa],vapor or sublimation pressure (293.15 K) [kPa],vapor or sublimation pressure (298.15 K) [kPa],vapor or sublimation pressure (303.15 K) [kPa],vapor or sublimation pressure (308.15 K) [kPa],vapor or sublimation pressure (313.15 K) [kPa],vapor or sublimation pressure (318.15 K) [kPa],vapor or sublimation pressure (323.15 K) [kPa]
"ClC(Cl)C(Cl)Cl [1,1,2,2-tetrachloroethane]",0.263 ± 0.02,0.373 ± 0.02,0.521 ± 0.021,0.711 ± 0.021,0.98 ± 0.022,1.289 ± 0.022,1.701 ± 0.022,2.236 ± 0.023,2.86 ± 0.023
ClC(Cl)=C(Cl)Cl [tetrachloroethene],1.023 ± 0.022,1.4 ± 0.022,1.861 ± 0.022,2.462 ± 0.023,3.205 ± 0.023,4.117 ± 0.024,5.253 ± 0.025,6.621 ± 0.027,8.286 ± 0.028
C1CCOC1 [tetrahydrofuran],10.73 ± 0.032,13.67 ± 0.036,17.25 ± 0.041,21.6 ± 0.047,26.81 ± 0.054,32.94 ± 0.065,40.21 ± 0.077,48.68 ± 0.091,58.54 ± 0.11
